IC50 and inhibition in vivo data for 18 compounds are collected here from patent US20100130738A1 (priority 2007, published 2010).

The structures appear in SMILES notation.

Experiment [1] addresses T1, PDE3A catalytic domain (PDE3Acat) (Homo sapiens, UniProt Q14432).
T1 construct: isolate the cDNA of a PDE3A catalytic domain; made in house; host or cells: Sf9 insect cells (baculovirus, Bac-to-Bac / Gateway)
Nature of the experiment: Phosphodiesterase inhibitory activity, recombinant PDE3Acat, [3H]cAMP. Format: biochemical. The conditions noted are these: 30° C. 20 minutes, read-out: IC50 (μmol/L) PDE3.

For experiment [2], the target named is T2, PDE4Bcat (Homo sapiens, UniProt Q07343).
T2 construct: made in house; host or cells: Sf9 insect cells (baculovirus, Bac-to-Bac / Gateway)
T2 sequence (Q07343 330-659 limits assumed): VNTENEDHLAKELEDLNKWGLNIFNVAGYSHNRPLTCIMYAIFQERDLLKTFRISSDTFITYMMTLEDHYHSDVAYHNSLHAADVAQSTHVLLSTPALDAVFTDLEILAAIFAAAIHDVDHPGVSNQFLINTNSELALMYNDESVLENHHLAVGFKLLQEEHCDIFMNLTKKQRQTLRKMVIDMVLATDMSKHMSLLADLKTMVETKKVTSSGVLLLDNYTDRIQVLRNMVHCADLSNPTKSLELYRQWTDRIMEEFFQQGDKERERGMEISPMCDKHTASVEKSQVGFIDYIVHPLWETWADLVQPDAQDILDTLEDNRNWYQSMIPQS
Nature of the experiment: Phosphodiesterase inhibitory activity, recombinant PDE4Bcat, [3H]cAMP. Format: biochemical. Conditions: 30° C. 20 minutes, read-out: IC50 (μmol/L) PDE4.

The subject of experiment [3] is histamine-induced bronchoconstriction in guinea pigs. Nature of the experiment: Histamine-induced bronchoconstriction reaction in guinea pigs. The conditions noted are these: Cavia porcellus, iv, 0.5 min, compound 0.3 mg/kg i.v., measured 30 seconds after administration, histamine 12.5 μg/kg i.v., read-out: Inhibition rate (histamine-induced bronchoconstriction). Format: in vivo, guinea pig. How it is done:
Guinea pigs were anesthetized with pentobarbital (30 mg/kg, i.p.). A cannula for intravenous administration, a cannula for collecting blood and measuring blood pressure, and a tracheal cannula were inserted into the left external jugular vein, right internal carotid artery, and trachea, respectively. The guinea pigs were maintained on artificial respiration under conditions of 60 times/min and 10 mL/kg/stroke. The overflowing air from the side branch of the tracheal cannula was measured by a bronchospasm transducer (Ugo-Basile) and recorded on a computer via Power Lab (ADInstruments Japan). The guinea pigs were immobilized with gallamine (10 mg/kg, i.v.), and histamine (12.5 μg/kg, i.v.) was administered at 10-minute intervals. After the histamine-induced bronchoconstriction became stable, the compound (0.3 mg/kg, i.v.) was administered. The histamine-induced bronchoconstriction reaction was measured 30 seconds after the compound administration to examine the bronchoconstriction inhibitory activity of the compound. The bronchoconstriction was recorded as the airflow value, and the results were represented by the ratio of the maximum value of the histamine-induced airflow 30 seconds after administration to the maximum value of the airflow before administration. Also, the test compounds dissolved in DMSO were used. Further, the indications were as follows: inhibition rate≧90% (+++), 90%>inhibition rate≧80% (++), and 80%>inhibition rate≧60% (+).

T1 sequence (Q14432 674-1093 limits assumed): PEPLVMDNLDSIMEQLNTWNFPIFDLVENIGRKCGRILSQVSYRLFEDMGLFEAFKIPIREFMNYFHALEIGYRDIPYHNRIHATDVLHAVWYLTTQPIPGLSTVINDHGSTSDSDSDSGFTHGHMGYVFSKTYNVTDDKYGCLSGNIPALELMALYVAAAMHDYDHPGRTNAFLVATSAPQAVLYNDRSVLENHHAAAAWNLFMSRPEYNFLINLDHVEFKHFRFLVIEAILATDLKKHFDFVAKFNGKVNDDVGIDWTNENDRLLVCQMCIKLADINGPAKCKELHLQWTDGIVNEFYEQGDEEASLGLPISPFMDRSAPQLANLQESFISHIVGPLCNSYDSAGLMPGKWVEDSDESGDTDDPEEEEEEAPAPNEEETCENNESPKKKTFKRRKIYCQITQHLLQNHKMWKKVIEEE

For the compound `CCc1ccc2c(C3=NN(CCCCOc4ccc(C5=NNC(=O)CC5)cc4F)C(=O)C3(C)C)ccc(OC)c2n1` [Example 199, 5-(2-Ethyl-8-methoxyquinolin-5-yl)-2-[4-[2-fluoro-4-(6-oxo-1,4,5,6-tetrahydropyridazin-3-yl)phenoxy]butyl]-4,4-dimethyl-2,4-dihydro-pyrazol-3-one], the values for the IC50 in experiment [1] and in experiment [2] were 0.01 to 0.1 µmol/L and under 0.01 µmol/L, respectively. Moreover, in experiment [3], the inhibition in vivo at 0.3 mg/kg was at least 90%.
The matching figures for `CCc1ccc2c(C3=NN(CCCCOc4ccc(C5=NNC(=O)CC5)cc4)C(=O)C3(C)C)ccc(OC)c2n1` [Example 200, 5-(2-Ethyl-8-methoxyquinolin-5-yl)-2-[4-[4-(6-oxo-1,4,5,6-tetrahydropyridazin-3-yl)phenoxy]butyl]-4,4-dimethyl-2,4-dihydro-pyrazol-3-one]: 0.1 to 1 µmol/L, 0.01 to 0.1 µmol/L and at least 90%.
For `CCc1ccc2c(C3=NN(CCCCOc4ccc(C5=NNC(=O)C5(C)C)cc4F)C(=O)C3(C)C)ccc(OC)c2n1` [Example 202, 5-(2-Ethyl-8-methoxyquinolin-5-yl)-2-[4-[2-fluoro-4-(4,4-dimethyl-5-oxo-4,5-dihydro-1H-pyrazol-3-yl)phenoxy]butyl]-4,4-dimethyl-2,4-dihydro-pyrazol-3-one], in that order: 0.01 to 0.1 µmol/L, 0.01 to 0.1 µmol/L and 60 to 80%.
For `CCc1ccc2c(C3=NN(CCCCOc4ccc(C5=NNC(=O)C5(C)C)c(F)c4F)C(=O)C3(C)C)ccc(OC)c2n1` [Example 203, 5-(2-Ethyl-8-methoxyquinolin-5-yl)-2-[4-[2,3-difluoro-4-(4,4-dimethyl-5-oxo-4,5-dihydro-1H-pyrazol-3-yl)phenoxy]butyl]-4,4-dimethyl-2,4-dihydro-pyrazol-3-one], in that order: under 0.01 µmol/L, 0.01 to 0.1 µmol/L and at least 90%.
With `COc1ccc(C2=NN(CCCCOc3ccc(C4=NNC(=O)CC4C)cc3)C(=O)C2(C)C)c2cccnc12` (stereo not drawn) [Example 212, 5-(8-Methoxyquinolin-5-yl)-2-[4-[4-(4-methyl-6-oxo-1,4,5,6-tetrahydropyridazin-3-yl)phenoxy]butyl]-4,4-dimethyl-2,4-dihydro-pyrazol-3-one], the IC50 in experiment [1] is under 0.01 µmol/L; in experiment [2] it was 0.01 to 0.1 µmol/L. In addition, the inhibition in vivo at 0.3 mg/kg in experiment [3] was at least 90%.
For `COc1ccc(C2=NN(CCCCOc3ccc(C4=NNC(=O)C4(C)C)c(F)c3F)C(=O)C2(C)C)c2cccnc12` [Example 213, 2-[4-[2,3-Difluoro-4-(4,4-dimethyl-5-oxo-4,5-dihydro-1H-pyrazol-3-yl)phenoxy]butyl]-5-(8-methoxyquinolin-5-yl)-4,4-dimethyl-2,4-dihydro-pyrazol-3-one], the IC50 in experiment [1] is under 0.01 µmol/L; in experiment [2], 0.01 to 0.1 µmol/L. The inhibition in vivo at 0.3 mg/kg in experiment [3] is at least 90%.
With `COc1ccc(C2=NN(CCCCOc3ccc(C4=NNC(=O)CC4C)c(F)c3F)C(=O)C2(C)C)c2cccnc12` (stereo not drawn) [Example 214, 2-[4-[2,3-Difluoro-4-(4-methyl-6-oxo-1,4,5,6-tetrahydropyridazin-3-yl)phenoxy]butyl]-5-(8-methoxyquinolin-5-yl)-4,4-dimethyl-2,4-dihydro-pyrazol-3-one], the figures for the IC50 in experiment [1] and in experiment [2] were under 0.01 µmol/L and 0.01 to 0.1 µmol/L, respectively. Besides, in experiment [3], the inhibition in vivo at 0.3 mg/kg was at least 90%.
The matching figures for `COc1ccc(C2=NN(CCCCOc3ccc(C4=NNC(=O)CC4C)cc3F)C(=O)C2(C)C)c2cccnc12` (stereo not drawn) [Example 215, 2-[4-[2-Fluoro-4-(4-methyl-6-oxo-1,4,5,6-tetrahydropyridazin-3-yl)phenoxy]butyl]-5-(8-methoxyquinolin-5-yl)-4,4-dimethyl-2,4-dihydro-pyrazol-3-one]: under 0.01 µmol/L, 0.01 to 0.1 µmol/L and at least 90%.
For the compound `COc1ccc(C2=NN(CCCCOc3ccc(C4=NNC(=O)CC4)c(F)c3F)C(=O)C2(C)C)c2[nH]c(C(F)(F)F)nc12` [Example 219, 2-[4-[2,3-Difluoro-4-(6-oxo-1,4,5,6-tetrahydropyridazin-3-yl)phenoxy]butyl]-5-(4-methoxy-2-trifluoromethyl-1H-benzo[d]imidazol-7-yl)-4,4-dimethyl-2,4-dihydro-pyrazol-3-one], the IC50 in experiment [1] and in experiment [2] was under 0.01 µmol/L in each case. For the same compound, in experiment [3], the inhibition in vivo at 0.3 mg/kg is at least 90%.
Turning to `COc1ccc(C2=NN(CCCCOc3ccc(C4=NNC(=O)C4(C)C)c(F)c3F)C(=O)C2(C)C)c2[nH]c(C(F)(F)F)nc12` [Example 220, 2-[4-[2,3-Difluoro-4-(4,4-dimethyl-5-oxo-4,5-dihydro-1H-pyrazol-3-yl)phenoxy]butyl]-5-(4-methoxy-2-trifluoromethyl-1H-benzo[d]imidazol-7-yl)-4,4-dimethyl-2,4-dihydro-pyrazol-3-one], the IC50 is 0.01 to 0.1 µmol/L in experiment [1] and under 0.01 µmol/L in experiment [2]. In addition, the inhibition in vivo at 0.3 mg/kg in experiment [3] was at least 90%.
With `COc1ccc(C2=NN(CCCCOc3ccc(C4=NNC(=O)CC4C)c(F)c3F)C(=O)C2(C)C)c2[nH]c(C(F)(F)F)nc12` (stereo not drawn) [Example 221, 2-[4-[2,3-Difluoro-4-(4-methyl-6-oxo-1,4,5,6-tetrahydropyridazin-3-yl)phenoxy]butyl]-5-(4-methoxy-2-trifluoromethyl-1H-benzo[d]imidazol-7-yl)-4,4-dimethyl-2,4-dihydro-pyrazol-3-one], the IC50 in experiment [1] and in experiment [2] was under 0.01 µmol/L each time. For the same compound, the inhibition in vivo at 0.3 mg/kg in experiment [3] is at least 90%.
For `COc1ccc(C2=NN(CCCCOc3ccc(C4=NNC(=O)CC4C)c(F)c3F)C(=O)C2(C)C)c2sc(C(F)(F)F)nc12` (stereo not drawn) [Example 228, 2-[4-[2,3-Difluoro-4-(4-methyl-6-oxo-1,4,5,6-tetrahydropyridazin-3-yl)phenoxy]butyl]-5-(4-methoxy-2-trifluoromethylbenzo[d]thiazol-7-yl)-4,4-dimethyl-2,4-dihydro-pyrazol-3-one], the IC50 in experiment [1] and in experiment [2] was under 0.01 µmol/L in each case. Further, the inhibition in vivo at 0.3 mg/kg in experiment [3] lay within 80 to 90%.
As for `COc1ccc(C2=NN(CCCCOc3ccc(C4=NNC(=O)CC4)c(F)c3F)C(=O)C2(C)C)c2sc(C(F)(F)F)nc12` [Example 229, 2-[4-[2,3-Difluoro-4-(6-oxo-1,4,5,6-tetrahydropyridazin-3-yl)phenoxy]butyl]-5-(4-methoxy-2-trifluoromethylbenzo[d]thiazol-7-yl)-4,4-dimethyl-2,4-dihydro-pyrazol-3-one], the IC50 in experiment [1] and in experiment [2] was under 0.01 µmol/L throughout. Besides, the inhibition in vivo at 0.3 mg/kg in experiment [3] is at least 90%.
For `COc1ccc(C2=NN(CCCCOc3ccc(C4=NNC(=O)CC4C)c(F)c3F)C(=O)C2(C)C)n2cc(C(F)(F)F)nc12` (stereo not drawn) [Example 234, 2-[4-[2,3-Difluoro-4-(4-methyl-6-oxo-1,4,5,6-tetrahydropyridazin-3-yl)phenoxy]butyl]-5-(8-methoxy-2-trifluoromethylimidazo[1,2-a]pyridin-5-yl)-4,4-dimethyl-2,4-dihydro-pyrazol-3-one], the IC50 in experiment [1] and in experiment [2] was under 0.01 µmol/L each time. Moreover, in experiment [3], the inhibition in vivo at 0.3 mg/kg fell in the range of 80 to 90%.
As to `COc1ccc(C2=NN(CCCCOc3ccc(C4=NNC(=O)CC4)c(F)c3F)C(=O)C2(C)C)n2cc(C(F)(F)F)nc12` [Example 235, 2-[4-[2,3-Difluoro-4-(6-oxo-1,4,5,6-tetrahydropyridazin-3-yl)phenoxy]butyl]-5-(8-methoxy-2-trifluoromethylimidazo[1,2-a]pyridin-5-yl)-4,4-dimethyl-2,4-dihydro-pyrazol-3-one], the IC50 in experiment [1] and in experiment [2] was under 0.01 µmol/L in each case. In experiment [3], the inhibition in vivo at 0.3 mg/kg was 80 to 90%.
On to `COc1ccc(C2=NN(CCCCOc3ccc(C4=NNC(=O)C4(C)C)c(F)c3F)C(=O)C2(C)C)n2cc(C(F)(F)F)nc12` [Example 236, 2-[4-[2,3-Difluoro-4-(4,4-dimethyl-5-oxo-4,5-dihydro-1H-pyrazol-3-yl)phenoxy]butyl]-5-(8-methoxy-2-trifluoromethylimidazo[1,2-a]pyridin-5-yl)-4,4-dimethyl-2,4-dihydro-pyrazol-3-one], for which the IC50 in experiment [1] is 0.01 to 0.1 µmol/L; in experiment [2], under 0.01 µmol/L. Also, the inhibition in vivo at 0.3 mg/kg in experiment [3] was 60 to 80%.
The matching figures for `CCc1ccc2c(C3=NN(CCCCOc4ccc(C5=NNC(=O)CC5)cc4OC)C(=O)C3(C)C)ccc(OC)c2n1` [Example 238]: 0.1 to 1 µmol/L, 0.1 to 1 µmol/L and 60 to 80%.
As to `CCc1ccc2c(C3=NN(CCCOc4ccc(C5=NNC(=O)CC5C)c(F)c4F)C(=O)C3(C)C)ccc(OC)c2n1` (stereo not drawn) [Example 241, 5-(2-Ethyl-8-methoxyquinolin-5-yl)-2-[4-[2,3-difluoro-4-(4-methyl-6-oxo-1,4,5,6-tetrahydropyridazin-3-yl)phenoxy]propyl]-4,4-dimethyl-2,4-dihydro-pyrazol-3-one], the values for the IC50 in experiment [1] and in experiment [2] were under 0.01 µmol/L and 0.1 to 1 µmol/L, respectively. In addition, the inhibition in vivo at 0.3 mg/kg in experiment [3] was at least 90%.
